Reference: publication PMC3191281 (2011)

Target: T1, CK1α (casein kinase Iα) (Homo sapiens, UniProt P48729)
T1 sequence (P48729 2-337): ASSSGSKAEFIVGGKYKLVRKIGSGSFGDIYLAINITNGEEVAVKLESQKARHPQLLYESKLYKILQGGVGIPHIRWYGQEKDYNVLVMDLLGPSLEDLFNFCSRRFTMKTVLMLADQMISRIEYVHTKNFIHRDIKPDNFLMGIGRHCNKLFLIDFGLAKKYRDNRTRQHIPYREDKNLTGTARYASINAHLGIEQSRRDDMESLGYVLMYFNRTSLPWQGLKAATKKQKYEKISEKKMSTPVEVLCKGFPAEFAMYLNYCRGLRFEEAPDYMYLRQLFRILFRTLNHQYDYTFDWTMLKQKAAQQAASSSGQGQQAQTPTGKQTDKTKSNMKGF
Experiment: TR-FRET
Type: biochemical

## CCCCCc1cc(/C=C2/N=C(c3ccc[nH]3)C=C2OC)[nH]c1C [NSC 47147]
  IC50: 6 µM
